The nature of data set [1]: oral administration to mice: plasma level of non-ester compound (compound [II]), AUC and bioavailability. It is filed as in vivo. The note with it: compound [II] in plasma, 100 mg/kg (in terms of compound [II]), zero to 2 hours.
A further data set relates to Staphylococcus aureus. The note with it: gram-positive bacteria, Antimicrobial Agent and Chemotherapy 14, 557-568 (1978); cited from earlier work.
The subject of the next data set is Proteus mirabilis. The note with it: gram-negative bacteria, Antimicrobial Agent and Chemotherapy 14, 557-568 (1978); cited from earlier work.
Another data set has as its system Escherichia coli. The note with it: gram-negative bacteria, Antimicrobial Agent and Chemotherapy 14, 557-568 (1978); cited from earlier work.
A further data set relates to Proteus vulgaris. The note with it: gram-negative bacteria, Antimicrobial Agent and Chemotherapy 14, 557-568 (1978); cited from earlier work.
Another data set deals with proteus morganii. The note with it: gram-negative bacteria, Antimicrobial Agent and Chemotherapy 14, 557-568 (1978); cited from earlier work.
For data set [2] the following is noted: mouse, in vivo, sc, 120 min. The protocol: At 0.25, 0.5, 1.0 and 2.0 hours after administration, the concentration of compound [II] in plasma of the mouse is measured by the cup method using Proteus mirabilis Eb 313 as the test organism and the area under plasma concentration-time curve from zero to 2 hours (AUC) is calculated.
The compound [II ] was subcutaneously applied and AUC was calculated in the same manner as above.

A further data set concerns Klebsiella pneumoniae. The note with it: gram-negative bacteria, Antimicrobial Agent and Chemotherapy 14, 557-568 (1978); cited from earlier work.

Structures can show the parent of a compound that is named as a salt.

Regarding `CCC(OC(=O)OC1CCCCC1)OC(=O)C1=C(CSc2nnnn2CCN(C)C)CS[C@@H]2[C@H](NC(=O)Cc3csc(N)n3)C(=O)N12` (stereo partly drawn) [Example 5-2], in data set [1], the AUC turned out to be 31300 ng·h/mL. On the same count and under the same terms, the result for `CC(C)[C@@H]1CC[C@@H](C)C[C@H]1OC(=O)OCOC(=O)C1=C(CSc2nnnn2CCN(C)C)CS[C@@H]2[C@H](NC(=O)Cc3csc(N)n3)C(=O)N12` [Example 1-6] reads 29400 ng·h/mL; that for `CCCC(OC(=O)OC1CCCCC1)OC(=O)C1=C(CSc2nnnn2CCN(C)C)CS[C@@H]2[C@H](NC(=O)Cc3csc(N)n3)C(=O)N12` (stereo partly drawn) [Example 5-7], 36300 ng·h/mL. Same read-out and setting: the result for `CCOC(=O)OC(C)OC(=O)C1=C(CSc2nnnn2CCN(C)C)CS[C@@H]2[C@H](NC(=O)Cc3csc(N)n3)C(=O)N12` (stereo partly drawn) [A, 1-(ethoxycarbonyloxy)ethyl 78-[2-(2-aminothiazol-4-yl)acetamido]-3-[[[1-(2-dimethylaminoethyl)-1H-tetrazol-5-yl]-thio]methyl]ceph-3-em-4-carboxylate, reference compound] reads 9280 ng·h/mL; that for `CC(OC(=O)OC1CCCCC1C)OC(=O)C1=C(CSc2nnnn2CCN(C)C)CS[C@@H]2[C@H](NC(=O)Cc3csc(N)n3)C(=O)N12` (stereo partly drawn) [Example 2-11], 35400 ng·h/mL. On the same count and under the same terms, the result for `CN(C)CCn1nnnc1SCC1=C(C(=O)OCOC(=O)OC2CCCCCCCCCCC2)N2C(=O)[C@@H](NC(=O)Cc3csc(N)n3)[C@H]2SC1` [Example 1-5] reads 33100 ng·h/mL. In data set [1] (100 mg/kg), `CC(OC(=O)OC1CCCCC1C)OC(=O)C1=C(CSc2nnnn2CCN(C)C)CSC2C(NC(=O)Cc3csc(N)n3)C(=O)N12` (stereo not drawn) [Example 2-13] displayed an AUC of 36100 ng·h/mL. As to `CN(C)CCn1nnnc1SCC1=C(C(=O)OCOC(=O)OC2CCCCC2)N2C(=O)[C@@H](NC(=O)Cc3csc(N)n3)[C@H]2SC1` [Example 1-1, Cyclohexyloxycarbonyloxy 7β-[2-Aminothiazol-4-yl)Acetamido]-3-[[[1-(2-Dimethylaminoethyl)-1H-Tetrazol-5-yl]Thio]Methyl]Ceph-3-Em-4-Carboxylate Dihydrochloride], the AUC in data set [1] was 30000 ng·h/mL.

Turning to `CN(C)CCn1nnnc1SCC1=C(C(=O)O)N2C(=O)[C@@H](NC(=O)Cc3csc(N)n3)[C@H]2SC1` [compound[II], 7β-[2-(2-aminothiazol-4-yl)acetamido]-3-[[[1-(2-dimethylaminoethyl)-1H-tetrazol-5-yl]thio]methyl]-ceph-3-em-4-carboxylic acid], the antibacterial activity result in the data set on Staphylococcus aureus, in the data set on Proteus mirabilis, in the data set on Escherichia coli, with Proteus vulgaris, in the data set on proteus morganii and in the data set with Klebsiella pneumoniae was “potent antibacterial activity” each time. This compound also returned a Bioavailability in data set [2] of 100%. In turn, `CC1CCCC(OC(=O)OC(C)OC(=O)C2=C(CSc3nnnn3CCN(C)C)CS[C@@H]3[C@H](NC(=O)Cc4csc(N)n4)C(=O)N23)C1` (stereo partly drawn) [Example 2-10] had an AUC in data set [1] of 30100 ng·h/mL. Same read-out and setting: the result for `CC(OC(=O)OC1CCCCC1)OC(=O)C1=C(CSc2nnnn2CCN(C)C)CS[C@@H]2[C@H](NC(=O)Cc3csc(N)n3)C(=O)N12.Cl.Cl` (stereo partly drawn) [Example 2-1, 1-(Cyclohexyloxycarbonyloxy)ethyl 7β-[2-(2-aminothiazol-4-yl)acetamido]-3-[[[1-(2-dimethylaminoethyl)-1H-tetrazol-5-yl]thio]methyl]ceph-3-em-4-carboxylate dihydrochloride] reads 30000 ng·h/mL. For `CC(OC(=O)OC1CCCCC1C)OC(=O)C1=C(CSc2nnnn2CCN(C)C)CSC2C(NC(=O)Cc3csc(N)n3)C(=O)N12` (stereo not drawn) [Example 2-12], the AUC in data set [1] (100 mg/kg) is 35500 ng·h/mL.

Values taken from patent US5120841A, “Cephalosporin ester derivatives” (Takeda Chemical Industries, Ltd., priority 1983, dated 1992).
